Measured values as given in ChEMBL document CHEMBL1135177 (Bioorg Med Chem Lett, 2002).

Tests used:
Format in all cases: cell-based
[1] = molecular target: T1, Muscarinic acetylcholine receptor M4 (Homo sapiens, UniProt P08173); experiment: Binding affinity against human muscarine receptor (hM4) cloned in CHO cells
T1 sequence (P08173 whole entry): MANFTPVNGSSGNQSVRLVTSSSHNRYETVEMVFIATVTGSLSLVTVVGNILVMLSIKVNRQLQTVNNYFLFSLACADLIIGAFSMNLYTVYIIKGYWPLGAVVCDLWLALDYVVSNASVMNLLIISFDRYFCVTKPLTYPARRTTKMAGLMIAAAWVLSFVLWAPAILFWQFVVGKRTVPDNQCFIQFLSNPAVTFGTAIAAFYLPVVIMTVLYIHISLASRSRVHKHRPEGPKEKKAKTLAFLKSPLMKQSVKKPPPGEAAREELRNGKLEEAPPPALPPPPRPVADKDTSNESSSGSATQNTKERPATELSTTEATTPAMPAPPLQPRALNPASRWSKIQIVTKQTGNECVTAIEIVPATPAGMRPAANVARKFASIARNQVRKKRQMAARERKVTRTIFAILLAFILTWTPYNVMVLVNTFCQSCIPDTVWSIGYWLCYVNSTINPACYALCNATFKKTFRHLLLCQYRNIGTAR

[2] = molecular target: Muscarinic acetylcholine receptor M3 (Homo sapiens, UniProt P20309); experiment: Binding affinity against human muscarine receptor (hM3) cloned in CHO cells
Chain of Muscarinic acetylcholine receptor M3 (P20309 whole entry): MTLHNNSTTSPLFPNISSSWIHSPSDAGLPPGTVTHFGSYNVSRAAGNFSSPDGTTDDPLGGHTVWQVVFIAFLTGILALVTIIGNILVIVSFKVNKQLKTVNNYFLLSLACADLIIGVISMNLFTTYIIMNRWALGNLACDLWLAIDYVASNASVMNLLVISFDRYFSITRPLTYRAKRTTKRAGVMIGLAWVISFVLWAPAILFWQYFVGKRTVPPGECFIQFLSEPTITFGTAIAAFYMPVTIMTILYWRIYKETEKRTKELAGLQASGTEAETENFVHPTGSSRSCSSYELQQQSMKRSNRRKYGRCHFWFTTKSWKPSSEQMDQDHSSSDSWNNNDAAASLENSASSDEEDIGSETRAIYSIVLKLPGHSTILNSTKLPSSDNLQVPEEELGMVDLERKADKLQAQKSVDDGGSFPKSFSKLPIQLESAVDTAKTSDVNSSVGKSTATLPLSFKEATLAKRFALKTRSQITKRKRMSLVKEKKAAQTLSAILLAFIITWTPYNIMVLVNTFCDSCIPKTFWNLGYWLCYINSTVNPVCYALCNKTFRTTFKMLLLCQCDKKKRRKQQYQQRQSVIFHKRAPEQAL

[3] = molecular target: T2, Muscarinic acetylcholine receptor M1 (Homo sapiens, UniProt P11229); experiment: Binding affinity against human muscarine receptor (hM1) cloned in CHO cells
T2 sequence (P11229 whole entry): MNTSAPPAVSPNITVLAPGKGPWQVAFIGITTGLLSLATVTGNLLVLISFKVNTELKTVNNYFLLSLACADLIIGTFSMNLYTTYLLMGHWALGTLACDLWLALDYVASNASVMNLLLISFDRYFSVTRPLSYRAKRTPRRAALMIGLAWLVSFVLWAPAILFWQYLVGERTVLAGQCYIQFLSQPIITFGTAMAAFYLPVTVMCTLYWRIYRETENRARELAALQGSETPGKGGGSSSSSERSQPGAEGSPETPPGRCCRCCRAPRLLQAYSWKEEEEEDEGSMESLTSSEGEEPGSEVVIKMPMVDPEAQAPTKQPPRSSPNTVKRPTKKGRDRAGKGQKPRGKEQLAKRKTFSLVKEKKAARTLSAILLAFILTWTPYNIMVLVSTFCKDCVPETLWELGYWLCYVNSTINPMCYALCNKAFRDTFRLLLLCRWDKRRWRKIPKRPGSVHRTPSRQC

[4] = molecular target: T3, Muscarinic acetylcholine receptor M2 (Homo sapiens, UniProt P08172); experiment: Binding affinity against human muscarine receptor (hM2) cloned in CHO cells
T3 sequence (P08172 whole entry): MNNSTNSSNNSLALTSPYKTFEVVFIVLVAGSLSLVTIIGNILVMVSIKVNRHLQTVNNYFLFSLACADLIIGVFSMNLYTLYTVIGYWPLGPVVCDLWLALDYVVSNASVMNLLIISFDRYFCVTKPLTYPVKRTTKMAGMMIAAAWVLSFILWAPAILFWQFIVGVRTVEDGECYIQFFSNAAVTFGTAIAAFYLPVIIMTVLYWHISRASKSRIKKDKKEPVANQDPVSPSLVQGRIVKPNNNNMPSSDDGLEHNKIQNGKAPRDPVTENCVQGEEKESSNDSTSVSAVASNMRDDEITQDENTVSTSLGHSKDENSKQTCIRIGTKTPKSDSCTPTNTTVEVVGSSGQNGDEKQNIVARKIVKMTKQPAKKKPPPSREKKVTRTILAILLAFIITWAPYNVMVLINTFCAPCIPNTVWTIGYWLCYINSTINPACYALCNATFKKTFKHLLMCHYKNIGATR

| SMILES | Ki [1] | Ki [2] | Ki [3] | Ki [4] |
| --- | --- | --- | --- | --- |
| C[C@@H]1OC(=O)[C@H]2C[C@H]3CCCC[C@H]3[C@H](C#C[C@H]3CCC[C@H](C)N3C)[C@@H]12 | 1740 nM | 5010 nM | 5370 nM | 1150 nM |
| C[C@@H]1OC(=O)[C@H]2C[C@H]3CCCC[C@@H]3[C@@H](C#C[C@H]3CCC[C@H](C)N3C)[C@@H]12 | 891 nM | 3310 nM | 3240 nM | 309 nM |
| C[C@@H]1OC(=O)[C@@H]2C[C@@H]3CCCC[C@@H]3[C@@H](/C=C/[C@H]3CCC[C@H](C)N3C)[C@H]12 | – | – | 427 nM | 95.5 nM |
| C[C@@H]1OC(=O)[C@@H]2C[C@@H]3CCCC[C@@H]3[C@@H](C#C[C@H]3CCC[C@H](C)N3C)[C@H]12 | 1950 nM | 11000 nM | 3240 nM | 1170 nM |
| C[C@@H]1OC(=O)[C@H]2C[C@H]3CCCC[C@@H]3[C@@H](/C=C\[C@H]3CCC[C@H](C)N3C)[C@@H]12 | – | – | 1510 nM | 1740 nM |
| C[C@@H]1OC(=O)[C@@H]2C[C@@H]3CCCC[C@@H]3[C@@H](/C=C\[C@H]3CCC[C@H](C)N3C)[C@H]12 | – | – | 2340 nM | 676 nM |
| C[C@@H]1OC(=O)[C@H]2C[C@H]3CCCC[C@H]3[C@H](/C=C/[C@H]3CCC[C@H](C)N3C)[C@@H]12 | – | – | 1740 nM | 170 nM |
| C[C@@H]1OC(=O)[C@H]2C[C@H]3CCCC[C@H]3[C@H](/C=C\[C@H]3CCC[C@H](C)N3C)[C@@H]12 | – | – | 2570 nM | 851 nM |
| C[C@@H]1OC(=O)[C@H]2C[C@H]3CCCC[C@@H]3[C@@H](/C=C/[C@H]3CCC[C@H](C)N3C)[C@@H]12 [HIMBACINE] | – | – | 158 nM | 4.68 nM |
